According to patent US20040005291A1, “Methods for regulating co-stimulatory molecule expression with reactive oxygen” (priority 2001, published 2004):

How the values were obtained:
Fas and B7 = Fas and B7 levels in cells in the presence of 2-deoxyglucose; format: cell-based; conditions: cells where glucose cannot bind to its receptor
Description: […] Cells were then harvested, stained with fluorescent labeled anti-Fas, or with isotype controls as indicated. […] Data were analyzed using Becton Dickinson CellQuest software.

B7.2 on HL60 cells = conditions: 0.25 mM H202, 48 hours
Description: (§1) The cells were then exposed to 200 mW of low frequency microwaves for 30 minutes, 1 hour, or 3 hours. Cells were then stained with DCF-DA (Molecular Probes, Inc. Eugene, Oreg.) as an indicator of relative levels of H202. Cells were also stained with fluorescent labeled antibodies to human B7.2 (Pharmingen, Inc.), versus fluorescent labeled, isotype matched control antibodies, upper panels, left and right, respectively. Indicated levels represent the ratio of specific B7.2 stain over the fluorescently labeled isotype control for each condition. Replicate samples, microwaved for the indicated time periods, were subsequently cultured for an additional 21 hours and stained for H202 and B7.2, as indicated, lower panels. Cells were analyzed flow cytometrically using a Coulter Excel Flow Cytometer. Data were analyzed using Becton Dickinson CellQuest software.
(§2) Methods: Human myelocyte cells U937, HL60, PC12, and PC12Trk cells were cultured in the presence of subcytotoxic doses (0.25 mM) of H202 for 48 hours, harvested and stained with isotype controls or fluorescent labeled anti-B7.2 as described in Example 1. Cells were analyzed flow cytometrically using a Coulter Excel Flow Cytometer. Data were analyzed using Becton Dickinson CellQuest software.

[1] = test system: B7.2 on PC12 neural cell line; conditions: PC12 cells, 0.25 mM H202, 48 hours
Description: as §1, §2

[2] = test system: B7.2 on PC12Trk neural cell line; conditions: PC12Trk cells, 0.25 mM H202, 48 hours
Description: as §1, §2

B7.2 on U937 cells = conditions: 0.25 mM H202, 48 hours
Description: as §1, §2

B7 on MCF7 cells = conditions: H2O2 at subcytotoxic levels
Source text: We added H2O2 (at subcytotoxic levels) directly to cells (MCF7, HL60, U937, and neural cells PC12 and PC12Trk^15) in culture to see if this caused changes in B7 expression.

[3] = test system: B7.1 on keratinocyte cell line; conditions: mouse keratinocyte cell line, 0.25 mM H2O2, 12 or 24 hours
Description: (§3) A mouse keratinocyte cell line was incubated with or without 0.25 mM Hydrogen Peroxide (H2O2) for 12 or 24 hours. Then the level of B7.1 and Fas were evaluated. The data is attached as FIGS. 3A and 3B.

[4] = test system: Fas on keratinocyte cell line; conditions: mouse keratinocyte cell line, 0.25 mM H2O2, 12 or 24 hours
Description: as §3

[5] = test system: reactive oxygen in neural stem cells; conditions: DCF-DA stain, FIG. 4
Description: FIG. 4 is a graph depicting the effects of ethanol in neural stem cells. The cells were stained with DCF-DA.
Methods: Neural stem cells were treated as described above.

[6] = test system: co-stimulatory molecules in neural stem cells
Fas on HL60 cells = experiment: Cell surface Fas expression, flow cytometry with anti-Fas; format: cell-based
Description: Methods: HL60 cells were incubated with insulin or under in conditions of low glucose overnight. Cells were then harvested, stained with fluorescent labeled anti-Fas, or with isotype controls as indicated. […] Data were analyzed using Becton Dickinson CellQuest software.

`O=CC[C@@H](O)[C@H](O)[C@H](O)CO` [2-deoxyglucose] was tested, and the “levels of these molecules (Fas and B7)” value (Fas and B7) was “substantial reductions”.

With `OO` [H2O2, Hydrogen Peroxide] the “cell surface expression of B7.2” value (B7.2 on HL60 cells) was “increased cell surface expression of B7.2”, the “cell surface expression of B7.2” value [1] was “increased cell surface expression of B7.2” and the “cell surface expression of B7.2” value [2] was “increased cell surface expression of B7.2”. For the same compound, the “cell surface expression of B7.2” value (B7.2 on U937 cells) was “increased cell surface expression of B7.2”, the B7 expression (B7 on MCF7 cells) was “increase in B7” and the “level of expression of B7.1” value [3] was “increases”. For the same compound, the “level of expression of Fas” value [4] was “increases”.

For `CCO` [alcohol, ethanol], the reactive oxygen [5] was “increase reactive oxygen” and the “induction of co-stimulatory molecules” value [6] was “increased induction of co-stimulatory molecules”.

In the case of insulin, the “cell surface Fas expression” value (Fas on HL60 cells; HL60 cells incubated with insulin overnight) is reported as “loss of cell surface Fas expression” and the “reduction of levels of Fas” value (Fas on HL60 cells; addition of insulin to cells in culture) is reported as “ten-fold”.
